According to article PMC11601558, “SLC6A19 inhibition facilitates urinary neutral amino acid excretion and lowers plasma phenylalanine” (JCI Insight, 2024):
Where “and” joins values, the source holds several entries; their conditions need not be identical. Equal values may be shown once.

Test system: T1, SLC6A8
T1 construct: V5; expressed in transfected cells; host or cells: Flp-In T-Rex 293 cells (Thermo Fisher), tetracycline-induced
Experiment: SLC6A8 creatine transport assay
Type: cell-based, human
Conditions: for SLC6A8 transport (Fig S2 curve point): technical replicates
Experimental: Supplementary Materials and Methods
Flp-In T-Rex 293 cells (Thermo Fisher) were engineered to induciblyexpress either V5-tagged human SLC1A5, SLC6A8 or SLC7A5 co-expressed with myc-DDK-tagged SLC3A2. Cells expressing SLC 1A5 or SLC6A8 were maintained in either DMEM or DMEM/F12 media supplemented with 10% FBS, 100 U/mL penicillin, 100 μg/mL streptomycin, 200 μg/mL hygromycin, and 10 μg/mL blasticidin. For cells expressing SLC7A5/SLC3A2, the media was additionally supplemented with 300 μg/mL geneticin. All cell lines were maintained at 37°C and 5% CO2. For transport experiments, all cell lines were plated in poly-D-lysine-coated 96-well plates at a density of 35,000 cells/well. One day after plating, expression of SLC1A5, SLC6A8 or SLC7A5 was induced by adding tetracycline at a concentration of 1 μg/mL. Cells were induced for 24 h prior to transport assays. […]
SLC6A8 creatine transport assay
Following a 24 h induction with tetracycline, cells were washed with PBS before JNT -517 was added in 8-point concentration-response diluted in DMEM. 3-guanidinopropionic acid was used as a positive control (33)at a concentrationof 1 mM and 0.5% DMSO was used as a negative control. Cells were incubated in a cell culture incubator for 30 minutes at 37°C and 5% CO 2 before 15 mM D3-labeled creatine (CDN Isotopes) was added as a transport substrate. After a 15 min incubation at 37°C and 5% CO2, cells were washed once with PBS. Cells were lysed in H2O with 500 nM D5-labeled creatine (CDN isotopes) as an internal standard for 1 h at 37°C.
Following lysis, a standard curve of dilution of D3-creatine was added to the last row of each plate. Plates were centrifuged for 5 min and supernatant was diluted 1:2 in H 2O. Sample desalting was performed on a high throughput Agilent RapidFire-365. From the analytical injection plate, approximately 40 μL of sample was desalted through an Agilent RapidFire Cartridge Graphitic Carbon Type D (G9206A) using water with 0.1% ammo nium hydroxide as the loading mobile phase A for 3000 milliseconds at a flow rate of 1.5 mL/min. The sample was then eluted from the cartridge using 80% acetonitrile containing 0.1% ammonium hydroxide for […]
An Agilent Q -ToF 6545 was […]
used as the analyzing mass spectrometer via electrospray ionization. Capillary voltage was set to 3 kV, with a gas temperature of 350°C. Nitrogen drying gas was applied at 12 L/min with a pressure of 40 psi, and sheath gas was set to 375°C with a flow of 12 L/min. All data were collected with a positive ion polarity and stored as centroid data. Agilent MassHunter QToF was […]
used as the integration software for measuring area under the peak for both D3 -creatine and D5-creatine as the internal standard. A linear regression was used from a standard curve of D3 - creatine to calculate absolute concentration from peak area. […]
Microbeta2 microplate counter (PerkinElmer). […]

## NC(=O)N1CCC[C@@H](N(C(=O)NCc2ccc(OC(F)(F)F)cc2F)C2CC2)C1 [JNT-517]
0.0160037 uM
  SLC6A8 transport (Fig S2 curve point): 97.4 and 85.6
0.048011 uM
  SLC6A8 transport (Fig S2 curve point): 94 and 85
0.144033 uM
  SLC6A8 transport (Fig S2 curve point): 99.7 and 86.6
0.432099 uM
  SLC6A8 transport (Fig S2 curve point): 93.6 and 86.7
1.2963 uM
  SLC6A8 transport (Fig S2 curve point): 93.8 and 90.6
3.88889 uM
  SLC6A8 transport (Fig S2 curve point): 97.6 and 89.5
11.6667 uM
  SLC6A8 transport (Fig S2 curve point): 90.1 and 92.7
35 uM
  SLC6A8 transport (Fig S2 curve point): 95.9 and 86.1
Concentrations up to 35 μM
  inhibition of SLC6A8: did not inhibit
